These are literature values, as cited in patent US11224572B1, “Stable oral liquid composition of terazosin” (Novitium Pharma LLC, priority 2020, dated 2022).

Where a name gives a salt, the structure may show the parent alone.

Data set [1] concerns alpha-1 adrenoceptor.
Data set [2] has as its system alpha-1 adrenoceptor. To be noted: in animals.
The conditions of data set [3]: patients treated with terazosin.

Turning to `COc1cc2nc(N3CCN(C(=O)C4CCCO4)CC3)nc(N)c2cc1OC` (racemic) [terazosin, (RS)-Piperazine, 1-(4-amino-6,7-dimethoxy-2-quinazolinyl)-4-[(tetrahydro-2-furanyl)carbonyl]-, monohydrochloride], in data set [1], the “time within which blood pressure decreases following oral administration” value was not above 15 min. Besides, the “effect on blood pressure” value in data set [2] is recorded as “causes a decrease in blood pressure by decreasing total peripheral vascular resistance”. Also, the “patients experiencing an increase in urinary flow and improvement in symptoms of BPH” value in data set [3] was “approximately 70%”.
